Results from patent US11098040B2, “Compounds and methods of use” (Ferro Therapeutics, Inc., priority 2018, dated 2021).
Like-named read-outs stand apart in the source and are kept apart here.

Experiments:
SJSA-1 = assay: Cell proliferation (Alamar Blue) assay, SJSA-1 osteosarcoma, with/without ferrostatin; assay type: cell-based, human; details: Homo sapiens
In short: (§1)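 Cells seeded at 5000/well, 16-24 h, then exposed 24 h at 37° C to compound, 10-0.0005 μM in 3-fold dilutions, 1% DMSO final. Alamar Blue fluorescence (ex 540/em 590 nm) read after 1.5 h; IC50 from variable-slope sigmoidal fit.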

786-O = assay: Cell proliferation (Alamar Blue) assay, 786-O renal cell carcinoma, with/without ferrostatin; assay type: cell-based; details: Homo sapiens
In short: as §1

A431 = assay: Cell proliferation (Alamar Blue) assay, A431; assay type: cell-based; details: Homo sapiens, A-431; Cell Line A431
Experimental: Cells (SJSA-1, 786-O and A431) were seeded (5000 cells/100 μL/well) in 96-well tissue culture plate and incubated at 37° C./5% CO2 for 16-24 hours. The cells were then treated with compounds (25 μL of 5×). The compound concentrations were 10-0.0005 μM prepared in 3-fold serial dilutions with final DMSO concentration of 1%. The plates were then incubated for 24 h at 37° C./5% CO2 in a moist environment. Then Alamar Blue™ reagent (final concentration 1×-12.5 μL) was added to each well and incubated for 1.5 hours at 37° C./5% CO2. The plates were read on fluorescence reader at 540 nm excitation and 590 nm emission wavelengths. The IC50 values were subsequently determined using a sigmoidal dose-response curve (variable slope) in GraphPad Prism® 5 software.
The cell proliferation assays for the compounds shown Table 25 was performed according to the protocols described herein, including Examples 4 and 6.

KP4 = assay: Cell viability assay (CellTiter Glo), pancreatic ductal adenocarcinoma KP4; assay type: cell-based, human; details: Homo sapiens
In short: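 Luminescent ATP readout (CellTiter Glo) after 96 h compound exposure, normalized to DMSO-treated cells as maximum. Compounds ran in duplicate, nine 3-fold steps from 30 μM down to 4.6 nM, final DMSO ≤0.25%; KP4 plated overnight at 1,000–10,000 cells/well. Outputs: IC50, relative IC50 or % top inhibition.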

MiaPaCa-2 = assay: Cell viability assay (CellTiter Glo), pancreatic carcinoma MiaPaCa-2; assay type: cell-based; details: Homo sapiens
Experimental: (§2) Cell viability assay was performed to assess the potency of the compounds in human cancer cell lines KP4 (pancreatic ductal adenocarcinoma), MiaPaCa-2 (pancreatic carcinoma), AsPC-1 (pancreatic adenocarcinoma, ascites), 143B (osteosarcoma), and SJSA-1 (osteosarcoma). Selected compounds were also assayed in a human breast epithelial cell line MCF-10A, a nontumorigenic cell line as a control to assess differential activity. Cells at a density of 500-5,000 cells/well were seeded in 96-well plates and incubated at 37° C. overnight. A series of 9 different concentrations of compound stocks (500×) were created by 3-fold serial dilution in DMSO. These compounds were further diluted in culture media and then added to cells so that the final DMSO concentration was equal to 0.25% or less. After 96 hours of incubation, 50 μL of CellTiter Glo reagent (Promega) was added to each well and luminescence was measured after 10 minutes using EnVision (PerkinElmer). Compounds titrated from top concentration of up to 30 μM. The select compounds were tested initially from 30 μM as the top concentration in duplicates (range of 4.6 nM-30 μM). […] Luminescence from cells treated with DMSO alone was set as Max and % of inhibition was calculated as follows: Inhibition %=(Max-Sample value)/Max*100. Data was analyzed using XL-fit software (ID Business Solutions Ltd.). IC50, relative IC50, or % of top inhibition was calculated.
The results of the assay in the pancreatic cell lines are given in Table 15a for PANC1, Table 15b for MiaPaCa-2, and Table 15c for AsPC-1.

A549 = assay: Cell viability assay, A549 cells; assay type: cell-based; details: Homo sapiens
Experimental: Example 5: Inducer Compound Effect on Growth of A549 and KP4 Cells
as §2, with “in” for “in human”, “line” for “lines”, “adenocarcinoma).” for “adenocarcinoma), MiaPaCa-2 (pancreatic carcinoma), AsPC-1 (pancreatic adenocarcinoma, ascites), 143B (osteosarcoma), and SJSA-1 (osteosarcoma). Selected compounds were also assayed in a human breast epithelial cell line MCF-10A, a nontumorigenic cell line as a control to assess differential activity.”, “1,000-10,000” for “500-5,000”, “All” for “Compounds titrated from top concentration of up to 30 μM. The select”, “calculated. […]” for “calculated.”

[1] = Whole blood stability, human; assay type: in vitro ADME
Source text: (§3) The results of the assay on stability in blood and IC50 values for pancreatic cancer cell line KP4 are given below in Table 24.

[2] = Whole blood stability, mouse; assay type: in vitro ADME
Source text: as §3

MCF-10A = assay: Cell viability assay (CellTiter Glo), non-tumorigenic breast epithelial cell line MCF-10A; assay type: cell-based; details: Homo sapiens, 96 hours
Experimental: as §2
Paclitaxel was used as the positive control for cytotoxicity.

[3] = SJSA-1, Cell Line SJSA-1, read-out: IC50
[4] = 786-0, Cell Line 786-O, read-out: IC50
[5] = KP-4, Cell Line KP4, read-out: IC50
[6] = MIA PaCa-2, pancreatic carcinoma, 96 hours, CellTiter Glo, read-out: IC50 MiaPaCa-2
[7] = Cell Line Mia PaCa-2, read-out: IC50
[8] = A549, Cell Line A549, read-out: IC50

Row | SMILES | IC50 (SJSA-1; [3]) | IC50 (A431) | IC50 (MiaPaCa-2; [6]) | further results
1 | C[C@H]1Cc2c([nH]c3ccccc23)[C@H](c2ccc(C(=O)Nc3ccccn3)cc2)N1C(=O)CCl (single isomer, unassigned) [Compound 219] | 0.036 µM | 1900 nM |  | IC50 (786-O; [4]): 0.051 µM
2 | C[C@H]1Cc2c([nH]c3ccc(F)cc23)[C@H](c2ccc(S(=O)(=O)NC3CC3)cc2F)N1C(=O)CCl (stereo in doubt) [Compound 164, 4-((1S,3S)-2-(2-chloroacetyl)-6-fluoro-3-methyl-2,3,4,9-tetrahydro-1H-pyrido[3,4-b]indol-1-yl)-N-cyclopropyl-3-fluorobenzenesulfonamide] | 0.013 µM | 9940 nM |  | IC50 (SJSA-1; SJSA-1, 24 h, Alamar Blue, 24 h, 2 μM ferrostatin, read-out: SJSA-1 (IC50, μM) 2 μM Ferrostatin): 7.06 µM; IC50 (SJSA-1; SJSA-1, 24 h, Alamar Blue, 24 h, without ferrostatin, read-out: SJSA-1 (IC50, μM) Without Ferrostatin): 0.013 µM; IC50 (786-O; 786-0, 24 h, Alamar Blue, 24 h, 2 μM ferrostatin, read-out: 786-O (IC50, μM) 2 μM Ferrostatin): 6.34 µM; IC50 (786-O; 786-0, 24 h, Alamar Blue, 24 h, without ferrostatin, read-out: 786-O (IC50, μM) Without Ferrostatin): 0.023 µM; IC50 (786-O; [4]): 0.023 µM
3 | Cc1cc(N2CCOCC2)ccc1[C@@H]1c2[nH]c3ccccc3c2C[C@H](C)N1C(=O)CCl [Compound 128, 2-chloro-1-((1R,3S)-3-methyl-1-(2-methyl-4-morpholinophenyl)-1,3,4,9-tetrahydro-2H-pyrido[3,4-b]indol-2-yl)ethan-1-one] | 0.184 µM | > 10000 nM |  | IC50 (786-O; [4]): 0.188 µM
4 | COC(=O)[C@H]1Cc2c([nH]c3ccccc23)[C@H](c2ccc(C(=O)OC(C)(C)C)cc2)N1C(=O)C(Cl)Cl [Compound 263] |  |  | 5570 nM | IC50 (KP4; [5]): 10.4 µM; IC50 (MiaPaCa-2; [7]): 5570 nM; IC50 (A549; [8]): 6220 nM
5 | COC(=O)c1ccc([C@H]2c3[nH]c4ccccc4c3C[C@H](C(=O)OC)N2C(=O)/C=C/CN(C)C)cc1 [Compound 273] |  |  |  | IC50 (KP4; [5]): 1.71 µM; IC50 (MiaPaCa-2; [7]): 10 nM; IC50 (A549; [8]): 3230 nM
6 | COC(=O)[C@H]1Cc2c([nH]c3ccccc23)[C@@H](c2ccc(S(=O)(=O)N(C)C)cc2)N1C(=O)CCl [Example 23a] |  |  | 3150 nM | 
7 | COC(=O)[C@H]1Cc2c([nH]c3ccccc23)[C@H](c2ccc(C(=O)OC(C)(C)C)cc2)N1C(=O)/C=C/CCl [Example 25] |  |  | 858 nM | 
8 | COC(=O)[C@H]1Cc2c([nH]c3ccccc23)[C@@H](c2ccc(C(=O)NCCN3CCOCC3)cc2)N1C(=O)CCl [Example 27a] |  |  | 3000 nM | Whole Blood Stability % Remaining at 37° C. Human ([1]; 0 min): 100.0%; Whole Blood Stability % Remaining at 37° C. Human ([1]; 30 min): 54.1%; Whole Blood Stability % Remaining at 37° C. Human ([1]; 60 min): 40.9%; IC50 (KP4; KP-4, 96 h, pancreatic cancer cell line KP4, 96 hours, CellTiter Glo, read-out: IC50 μM KP4): 0.1 to 0.5 µM; Whole Blood Stability % Remaining at 37° C. Mouse ([2]; 0 min): 100.0%; Whole Blood Stability % Remaining at 37° C. Mouse ([2]; 30 min): 92.5%; Whole Blood Stability % Remaining at 37° C. Mouse ([2]; 60 min): 81.1%
9 | CN(C)C(=O)c1ccc([C@H]2c3[nH]c4ccccc4c3C[C@H](C(=O)N(C)C)N2C(=O)CCl)cc1 [Example 38] |  |  | 3630 nM | IC50 (MCF-10A): 19600 nM
10 | COC(=O)C1CCC([C@H]2c3[nH]c4ccccc4c3C[C@H](C(=O)N(C)C)N2C(=O)CCl)CC1 (stereo partly drawn) [Example 41] |  |  | 40 nM | IC50 (MCF-10A): 40 nM
11 | COCCN(C(=O)c1ccc([C@H]2c3[nH]c4ccccc4c3C[C@H](C(=O)N(C)C)N2C(=O)CCl)cc1)C(C)(C)C [Example 52] |  |  | 243 nM | IC50 (MCF-10A): 180 nM; IC50 (A549; A549, A549, read-out: IC50 for A549): 280 to 360 nM
12 | CN(C)C(=O)[C@H]1Cc2c([nH]c3ccccc23)[C@H](c2ccc(C(=O)N(CCC(=O)OC(C)(C)C)C(C)(C)C)cc2)N1C(=O)CCl [Example 54] |  |  | 217 nM | IC50 (MCF-10A): 560 nM; IC50 (A549; A549, A549, unit printed as PM, read-out: IC50 for A549): 790 nM
13 | CN(C)C(=O)[C@H]1Cc2c([nH]c3ccccc23)[C@H](c2ccc(NC(=O)OC(C)(C)C)cc2)N1C(=O)CCl [Example 56] |  |  | 759 nM | IC50 (MCF-10A): 1510 nM
14 | CN(C)C(=O)[C@H]1Cc2c([nH]c3ccccc23)[C@H](c2ccc(S(C)(=O)=O)cc2)N1C(=O)CCl [Example 59] |  |  | 591 nM | IC50 (MCF-10A): 8780 nM
15 | CN(C)C(=O)[C@H]1Cc2c([nH]c3ccccc23)[C@H](c2ccc(C(=O)NC[Si](C)(C)C)cc2)N1C(=O)CCl [Example 66] |  |  | 159 nM | 
16 | CN(C)C(=O)[C@H]1Cc2c([nH]c3ccccc23)[C@@H](c2ccc([Si](C)(C)C)cc2)N1C(=O)CCl [Example 67a] |  |  | 1360 nM | 
17 | C[C@H]1Cc2c([nH]c3ccccc23)C(c2ccc(S(N)(=O)=O)cc2)N1C(=O)CCl (stereo partly drawn) [Example 123] | 4.7 µM | 5400 nM |  | 
18 | CC1CN(c2ccc([C@@H]3c4[nH]c5ccccc5c4C[C@H](C)N3C(=O)CCl)cc2)CCO1 (stereo partly drawn) [Example 127] | > 10 µM | 2800 nM |  | 
19 | C[C@H]1Cc2c([nH]c3ccccc23)[C@H](c2cnn(C3CCOCC3)c2)N1C(=O)CCl [Example 158] | 1.4 µM | > 10000 nM |  | 
20 | C[C@H]1Cc2c([nH]c3ccccc23)[C@@H](c2cnn(C3CCOCC3)c2)N1C(=O)CCl [Example 159] | > 10 µM | 7000 nM |  | 
21 | C[C@H]1Cc2c([nH]c3ccccc23)[C@H](c2ccncc2)N1C(=O)CCl [Example 171] | 0.254 µM | 8110 nM |  | 
22 | C#CC(=O)N1[C@@H](c2ccc(S(=O)(=O)NC3CC3)cc2F)c2[nH]c3ccccc3c2C[C@@H]1C [Example 174] | 0.091 µM | 2990 nM |  | 
23 | CCS(=O)(=O)N1CCN(c2ccc([C@H]3c4[nH]c5ccccc5c4C[C@H](C)N3C(=O)CCl)cc2)CC1 [Example 209] | 0.019 µM | 3280 nM |  | 
24 | C#CCOc1ccc2[nH]c3c(c2c1)C[C@H](C(=O)OC)N(C(=O)CCl)[C@H]3c1ccc(C(=O)NC23CC4CC(CC(C4)C2)C3)cc1 [Example 211] | 0.011 µM | 2730 nM |  | 
25 | CC1CN(c2ccc([C@H]3c4[nH]c5ccccc5c4C[C@H](C)N3C(=O)CCl)cc2)CC(C)O1 (stereo partly drawn) [Example 212] |  | 2510 nM |  | IC50 (786-O; [4]): 0.008 µM
26 | C[C@H]1Cc2c([nH]c3ccccc23)[C@H](c2ccc(N3CCOCC3)nc2)N1C(=O)CCl [Example 220] | 0.093 µM | 10000 nM |  | 
27 | COC(=O)[C@H]1Cc2c([nH]c3ccccc23)[C@H](c2ccc(O)cc2)N1C(=O)CCl [Example 265] |  |  | 246 nM | IC50 (KP4; [5]): 0.16 µM; IC50 (MiaPaCa-2; [7]): 260 nM
